Data reported in the supplement of paper PMC10307832.

Columns and labels:
Experiment in all cases: relative viability (nuclei count vs DMSO), 5 days (fraction); higher = more cells survive
[1] = compound: COc1cccc2cc(-c3nc([C@H]4CC[C@H](C(=O)O)CC4)n4ncnc(N)c34)[nH]c12 [OSI-027] + NC(=O)Nc1cc(-c2cccc(F)c2)sc1C(=O)N[C@H]1CCCNC1 [AZD7762] (partner 0.2 µM)
Method in brief: (§1)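 Values are medians from duplicate plates. Each reflects relative viability, defined as the nuclei count of treated wells over that of vehicle wells. Lung cancer cell lines in 1536-well plates were pin-tool dosed one day after seeding with one drug alone or with a fixed anchor-drug dose plus five library-drug doses (not always all listed) in √10 steps, then fixed, stained and imaged at 4× after 5 days.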

[2] = compound: COc1cccc2cc(-c3nc([C@H]4CC[C@H](C(=O)O)CC4)n4ncnc(N)c34)[nH]c12 [OSI-027] + Nc1ncn([C@H]2C[C@H](O)[C@@H](CO)O2)c(=O)n1 [Decitabine] (partner 2 µM)
Method in brief: as §1

[3] = compound: COc1cccc2cc(-c3nc([C@H]4CC[C@H](C(=O)O)CC4)n4ncnc(N)c34)[nH]c12 [OSI-027] + O=C(c1cc(Cc2n[nH]c(=O)c3ccccc23)ccc1F)N1CCN(C(=O)C2CC2)CC1 [Olaparib] (partner 8 µM)
Method in brief: as §1

[4] = compound: Cc1nc(NC(=O)N2CCC[C@H]2C(N)=O)sc1-c1ccnc(C(C)(C)C(F)(F)F)c1 [Alpelisib] + CC(C)C[C@H](NC(=O)[C@H](Cc1ccccc1)NC(=O)c1cnccn1)B(O)O [Bortezomib] (partner 0.002 µM)
Method in brief: as §1

| Cell Line | relative viability ([1]; first compound 0.01 µM) | relative viability ([1]; first compound 0.03162 µM) | relative viability ([1]; first compound 0.1 µM) | relative viability ([1]; first compound 0.3162 µM) | relative viability ([1]; first compound 1 µM) | relative viability ([2]; first compound 0.01 µM) | relative viability ([2]; first compound 0.03162 µM) | relative viability ([2]; first compound 0.1 µM) | relative viability ([2]; first compound 0.3162 µM) | relative viability ([2]; first compound 1 µM) | relative viability ([3]; first compound 0.01 µM) | relative viability ([3]; first compound 0.03162 µM) | relative viability ([3]; first compound 0.1 µM) | relative viability ([3]; first compound 0.3162 µM) | relative viability ([3]; first compound 1 µM) | relative viability ([4]; first compound 0.04 µM) | relative viability ([4]; first compound 0.1265 µM) | relative viability ([4]; first compound 0.4 µM) | relative viability ([4]; first compound 1.265 µM) | relative viability ([4]; first compound 4 µM) |
| --- | --- | --- | --- | --- | --- | --- | --- | --- | --- | --- | --- | --- | --- | --- | --- | --- | --- | --- | --- | --- |
| NCI-H2342 | 0.444 | 0.426 | 0.553 | 0.414 | 0.346 | 0.793 | 0.687 | 0.68 | 0.662 | 0.603 | 0.522 | 0.385 | 0.439 | 0.338 | 0.314 | – | – | – | – | – |
| SW 1573 | – | – | – | – | – | 0.411 | 0.535 | 0.438 | 0.388 | 0.284 | 0.485 | 0.513 | 0.398 | 0.444 | 0.293 | 0.898 | 0.947 | 1 | 0.72 | 0.651 |
| NCI-H1792 | 0.673 | 0.704 | 0.682 | 0.668 | 0.192 | 0.587 | 0.434 | 0.56 | 0.499 | 0.135 | 0.33 | 0.296 | 0.247 | 0.354 | 0.142 | 0.927 | 0.888 | 1.05 | 0.851 | 0.315 |
| LOU-NH91 | 0.762 | 0.702 | 0.667 | 0.597 | 0.482 | 0.804 | 0.825 | 0.73 | 0.718 | 0.613 | 0.91 | 0.907 | 0.844 | 0.843 | 0.638 | 0.478 | 0.457 | 0.51 | 0.537 | 0.474 |
